According to patent publication US20170368052A1, “CRYSTAL FORMS OF APOMORPHINE AND USES THEREOF” (NeuroDerm, Ltd., priority 2014, published 2017):
Entries after “also recorded” stand apart in the source; their conditions may differ. Where a name gives a salt, the structure may show the parent alone.

Tests used:
[1] = Vacuum oven drying, retained solvent content; type: physicochemical; conditions: for Solvent content post-drying: vacuum oven, 45° C. for 24 h
Method: Four samples (B, G, H and O) were transferred to a vacuum oven and dried at 45° C. for 24 h.

[2] = Stability of the reaction mixture at reflux in IPA with/without ascorbic acid-6-palmitate (HPLC); type: physicochemical
Method: In this case, the base was added under reflux and the procedure compared with and without ascorbic acid-6-palmitate as an antioxidant (Table 7).

[3] = Antioxidant additives: stability of apomorphine free base in MeOH solution (HPLC); type: physicochemical; conditions: MeOH (10 vol)
Method: However, the free base in solution is susceptible to aerial oxidation.
The vial was flushed with air, sealed, and stirred. The reactions were compared with a control reaction having no antioxidant. • A—in MeOH (10 vol) (control reaction) • B—ascorbic acid-6-palmitate (10 wt %) in MeOH (10 vol) • C—BHT (10 wt %) in MeOH (10 vol)
Samples were analyzed by HPLC. […] The HPLC profile just after addition of the antioxidant was of similar purity for each sample. After 24 h, sample B had precipitated a small amount of solid in a pale green solution. […] Key impurities elute early in the HPLC profile at RRT 0.15 and 0.18. In the samples without ascorbic acid-6-palmitate these impurities were >1.5% area.

[4] = Solubility of apomorphine free base and HCl salt in solvents; type: physicochemical
Method: This material was used in 50 mg portions (A0513-06).
The free base is fully soluble in 5 vol of either MeOH, EtOH, or n-BuOH. […] The free base precipitated as an oil from most solvents, particularly after heating. An apparently crystalline solid formed following dissolution of the free base and cooling in 1,4-dioxane.

[5] = Stability to air (color visually monitored); type: physicochemical; conditions: visual
Source text: Samples of free base isolated from water, IPA, and MeOAc were retained open to air and the color visually monitored (FIG. 2). Over the course of 2 days, the products isolated from organic solvents discolored to green solids. […]

[6] = Stability of the reaction mixture at 40-45° C. (HPLC profile); type: physicochemical; conditions: 40° C.
Method: The effect of adding ascorbic acid-6-palmitate on stability of the reaction mixture and the isolated solid was determined in a larger scale reaction (A0513-68). On a 10 g scale, ascorbic acid-6-palmitate (0.01 wt) was added to a flask with the apomorphine hydrochloride salt and IPA (10 vol). 3-amino-1-propanol (2.5 ml, 1.1 eq, 0.25 vol) was added at 40-45° C., and a slurry was present throughout. The slurry was stirred at 40-45° C. for 2 h; at this point 10% of the reaction mixture was removed for an extended stability study at 40-45° C. The remainder of the reaction was cooled and aged over 16 h to 18-23° C. The solid was filtered and washed with IPA (2×3 vol) and resulted a white solid (liquor was pale yellow). The solid was dried under a flow of nitrogen for 30 min. The yield was 7.03 g (79.8%, corrected for 18.3% w/w IPA, approximately 1 eq), 100% area by HPLC (Note: 10% of the reaction mixture was removed for the stability study, therefore this yield is at the expected approximately 90% level, and the combined mother liquor and washes contained 7.6% of theoretical yield by assay). In this material the ascorbic acid-6-palmitate and 3-amino-1-propanol in the product were below detectable levels by ^1H NMR analysis.
Stability of the reaction mixture was compared with and without ascorbic acid-6-palmitate. Each reaction was held at 40-45° C. and both the color and the HPLC profile monitored. HPLC purity profiles are shown on Table 6.

[7] = cited from earlier work; for pKa: amine bases used for salt release in IPA; for Literature pKa: bases of the base screen in n-BuOH
[8] = Stability study of the isolated solid to air and light (HPLC profile); type: physicochemical
Method: The 3-amino-1-propanol mediated salt release of apomorphine was scaled to 10 g in IPA (10 vol), and in order to aid the mobility of the reaction, the addition of the 3-amino-1-propanol was performed at 40-45° C. […] The slurry was cooled and aged over 16 h at 18 to 23° C.
Samples of solids isolated from an IPA recrystallization of the free base, salt released via the 3-amino-1-propanol route were monitored by their color change and their HPLC profile. The HPLC profiles are described in Table 8.

[9] = no ascorbic acid-6-palmitate, isolated solid
[10] = no ascorbic acid-6-palmitate, liquors
[11] = ascorbic acid-6-palmitate, 24 h
[12] = ascorbic acid-6-palmitate, 48 h
[13] = ascorbic acid-6-palmitate, 120 h
[14] = no ascorbic acid-6-palmitate, solution at reflux
[15] = with ascorbic acid-6-palmitate, liquors
[16] = with ascorbic acid-6-palmitate, isolated solid
[17] = isolated stability to air and light (2 days)
[18] = isolated stability to air and light (5 days)
[19] = isolated stability to air and light (17 days)
[20] = from reaction containing asc, stability of solid in air and light (5 days)
[21] = from reaction containing asc, stability of solid in air and light (14 days)
[22] = isolated from reaction containing asc (1 day)

SMILES: CN1CCc2cccc3c2[C@H]1Cc1ccc(O)c(O)c1-3 [Sample G]
- IPA content remaining ([1]; 75° C. for 17 h under vacuum): 17.4 % w/w

SMILES: CC(C)O.CN1CCc2cccc3c2C1Cc1ccc(O)c(O)c1-3 (stereo not drawn) [A0513-94-03]
- % area: RRT 1.00 [2, 9]: 99.81 % area
- % area: RRT 1.25 [2, 9]: 0.13 % area
- % area: RRT 1.71 [2, 9]: 0.02 % area

SMILES: CN1CCc2cccc3c2[C@H]1Cc1ccc(O)c(O)c1-3 [Sample B]
- HPLC purity compared between samples ([3]; after 24 h): higher than for either A or C
- HPLC purity compared between samples ([3]; after 72 h): highest purity
- Solvent content post-drying [1]: 23.4 % w/w

SMILES: CN1CCc2cccc3c2[C@H]1Cc1ccc(O)c(O)c1-3 [apomorphine hydrochloride]
- Solubility in methanol ([4]; listed as HCl salt, hydrochloride): the only solvent that dissolved any significant amount; also recorded: moderate solubility
- Solubility in n-BuOH ([4]; up to 20 vol at reflux): did not dissolve

SMILES: CN1CCc2cccc3c2[C@H]1Cc1ccc(O)c(O)c1-3 [apomorphine]
- Color of solid retained open to air ([5]; over 2 days): did not appear to change
- Time over which the solid gradually discolored open to air [5]: about 4 weeks
- Solubility in EtOH ([4]; 5 vol, 50 mg portions): fully soluble
- Solubility in MeOH ([4]; 5 vol, 50 mg portions): fully soluble
- Solubility in n-BuOH ([4]; 5 vol, 50 mg portions): fully soluble

SMILES: CN1CCc2cccc3c2C1Cc1ccc(O)c(O)c1-3 (stereo not drawn) [A0513-94-02]
- % area: RRT 1.00 [2, 10]: 92.99 % area
- % area: RRT 1.09 [2, 10]: 1.79 % area
- % area: RRT 1.25 [2, 10]: 0.57 % area
- % area: RRT 1.29 [2, 10]: 1.20 % area
- % area: RRT 1.50 [2, 10]: 0.22 % area
- % area: RRT 1.71 [2, 10]: 0.34 % area
- % area: RRT 1.76 [2, 10]: 0.43 % area

SMILES: CN1CCc2cccc3c2C1Cc1ccc(O)c(O)c1-3 (stereo not drawn) [A0513-72-01]
- % area: RRT 0.74 ([6]; poor purging, 24 h): 0.22 % area
- % area: RRT 1.00 ([6]; poor purging, 24 h): 98.18 % area
- % area: RRT 1.09 ([6]; poor purging, 24 h): 0.13 % area
- % area: RRT 1.22 ([6]; poor purging, 24 h): 0.44 % area
- % area: RRT 1.25 ([6]; poor purging, 24 h): 0.10 % area
- % area: RRT 1.37 ([6]; poor purging, 24 h): 0.15 % area
- % area: RRT 1.50 ([6]; poor purging, 24 h): 0.07 % area
- % area: RRT 0.74 ([6]; poor purging, 48 h): 0.10 % area
- % area: RRT 1.00 ([6]; poor purging, 48 h): 94.66 % area
- % area: RRT 1.09 ([6]; poor purging, 48 h): 2.32 % area
- % area: RRT 1.22 ([6]; poor purging, 48 h): 0.42 % area
- % area: RRT 1.25 ([6]; poor purging, 48 h): 1.46 % area
- % area: RRT 1.37 ([6]; poor purging, 48 h): 0.16 % area
- % area: RRT 1.50 ([6]; poor purging, 48 h): 0.10 % area

SMILES: CN1CCc2cccc3c2C1Cc1ccc(O)c(O)c1-3 (stereo not drawn) [A0513-68A-03]
- % area: RRT 1.00 [6, 11]: 99.93 % area
- % area: RRT 1.71 [6, 11]: 0.05 % area
- % area: RRT 1.76 [6, 11]: 0.03 % area
- % area: RRT 1.00 [6, 12]: 99.96 % area
- % area: RRT 1.71 [6, 12]: 0.04 % area
- % area: RRT 1.00 [6, 13]: 99.86 % area
- % area: RRT 1.25 [6, 13]: 0.04 % area
- % area: RRT 1.71 [6, 13]: 0.06 % area
- % area: RRT 1.76 [6, 13]: 0.04 % area

SMILES: CN1CCc2cccc3c2C1Cc1ccc(O)c(O)c1-3 (stereo not drawn) [A0513-94-01]
- % area: RRT 1.00 [2, 14]: 99.56 % area
- % area: RRT 1.09 [2, 14]: 0.05 % area
- % area: RRT 1.25 [2, 14]: 0.06 % area
- % area: RRT 1.71 [2, 14]: 0.06 % area
- % area: RRT 1.76 [2, 14]: 0.04 % area

SMILES: CN(C1CCCCC1)C1CCCCC1 [N-methyl-dicyclohexyl amine]
- pKa [7]: 9.25

SMILES: CN1CCc2cccc3c2C1Cc1ccc(O)c(O)c1-3 (stereo not drawn) [A0513-98-02]
- % area: RRT 1.00 [2, 15]: 95.62 % area
- % area: RRT 1.09 [2, 15]: 1.25 % area
- % area: RRT 1.25 [2, 15]: 0.19 % area
- % area: RRT 1.29 [2, 15]: 0.61 % area
- % area: RRT 1.50 [2, 15]: 0.12 % area
- % area: RRT 1.71 [2, 15]: 0.45 % area
- % area: RRT 1.76 [2, 15]: 0.34 % area

SMILES: CN1CCc2cccc3c2[C@H]1Cc1ccc(O)c(O)c1-3 [O]
- Solvent content post-drying [1]: 7.8 % w/w

SMILES: CC(C)O.CN1CCc2cccc3c2C1Cc1ccc(O)c(O)c1-3 (stereo not drawn) [A0513-98-03]
- % area: RRT 1.00 [2, 16]: 99.93 % area
- % area: RRT 1.25 [2, 16]: 0.07 % area

SMILES: C[N+](C)(C)CC(=O)O [Betaine]
- Literature pKa [7]: 12.16

SMILES: NCCCO [3-amino-1-propanol]
- pKa [7]: 10.23

SMILES: CC1(C)CCCC(C)(C)N1 [TMP, 2,2,6,6-tetramethylpiperidine]
- pKa [7]: 11.07
- Literature pKa [7]: 11.07

SMILES: CC(C)O.CN1CCc2cccc3c2[C@H]1Cc1ccc(O)c(O)c1-3 [A0513-64-05, apomorphine free base mono-IPA solvate]
- % area: RRT 1.00 ([8]; isolated solid, no ascorbic acid-6-palmitate, output): 100.00 % area
- % area: RRT 1.00 [8, 17]: 99.98 % area
- % area: RRT 1.71 [8, 17]: 0.02 % area
- % area: RRT 1.00 [8, 18]: 99.95 % area
- % area: RRT 1.71 [8, 18]: 0.03 % area
- % area: RRT 1.76 [8, 18]: 0.02 % area
- % area: RRT 0.41 [8, 19]: 0.03 % area
- % area: RRT 1.00 [8, 19]: 99.92 % area
- % area: RRT 1.71 [8, 19]: 0.02 % area
- % area: RRT 1.76 [8, 19]: 0.03 % area

SMILES: CN1CCc2cccc3c2C1Cc1ccc(O)c(O)c1-3 (stereo not drawn) [A0513-76-01]
- % area: RRT 1.00 ([6]; effective purging, 24 h): 99.90 % area
- % area: RRT 1.71 ([6]; effective purging, 24 h): 0.06 % area
- % area: RRT 1.76 ([6]; effective purging, 24 h): 0.04 % area
- % area: RRT 1.00 ([6]; effective purging, 96 h): 99.90 % area
- % area: RRT 1.71 ([6]; effective purging, 96 h): 0.06 % area
- % area: RRT 1.76 ([6]; effective purging, 96 h): 0.04 % area

SMILES: CN1CCc2cccc3c2[C@H]1Cc1ccc(O)c(O)c1-3 [H]
- Solvent content post-drying [1]: 20.0 % w/w

SMILES: CC(C)O.CN1CCc2cccc3c2[C@H]1Cc1ccc(O)c(O)c1-3 [A0513-68-01, apomorphine free base mono-IPA solvate]
- % area: RRT 1.00 [8, 20]: 99.97 % area
- % area: RRT 1.71 [8, 20]: 0.03 % area
- % area: RRT 0.41 [8, 21]: 0.01 % area
- % area: RRT 1.00 [8, 21]: 99.92 % area
- % area: RRT 1.71 [8, 21]: 0.03 % area
- % area: RRT 1.76 [8, 21]: 0.02 % area
- % area: RRT 2.02 [8, 21]: 0.02 % area
- % area: RRT 1.00 [8, 22]: 99.98 % area
- % area: RRT 1.71 [8, 22]: 0.02 % area
